Laboratory results as given in article PMC11992225, “Antibacterial compounds against non-growing and intracellular bacteria” (npj Antimicrobials and Resistance, 2025).

How the values were obtained:
[1] = system: SOS response in UPEC CFT073; test: SOS response induction analysis, pAED2 cda' promoter mScarlet-I reporter; format: cell-based, Escherichia coli; settings: 20 μM, 6 h; MMC, BLE, ECH in 1:4 CA-MHB pH 7.4; PLI, SAT, EVO in LPM pH 5.5
Procedure: Since we aimed to test SOS induction in non-growing cultures, it was essential to use a reporter with no leaky expression in the stationary phase. Therefore, we constructed the plasmid pAED2, based on the low copy-number plasmid pSC101, which contains the cda’ promoter in front of the mScarlet-I-encoding reporter gene.
Overnight cultures of CFT073 harboring a reporter plasmid were grown in 3 ml of LB supplemented with 100 µg/ml carbenicillin (Cb), then diluted 1:100 into the medium used for testing. For validation of the pANO1::cda’ reporter, an overnight culture was diluted into CA-MHB (supplemented with 40 mM HEPES, pH 7.4, and 100 µg/ml Cb) and grown to an OD600 ≈ 0.5 at 37 °C with shaking at 200 rpm in an Erlenmeyer flask. […] Empty wells were filled with water. […] The experiment was performed in triplicate.
For analysis of the SOS induction by anti-cancer compounds, the overnight cultures were diluted either into 1:4 diluted CA-MHB (40 mM HEPES, pH 7.4) or LPM (30 mM MES, pH 5.5) that were supplemented with 100 µg/ml Cb. For analysis of the effect on growing bacteria, the cultures were incubated at 37 °C with shaking at 200 rpm in Erlenmeyer flasks for 90 min, to an OD600 ≈ 0.5. Then, 180 μl aliquots were transferred to 96-well plates, and 20 μl of the 200 μM drug solution was added to achieve a final concentration of 20 μM. The plates were incubated in a microplate reader (BioTek Synergy H1) at 37 °C with continuous shaking for 6 h. OD600 and mScarlet fluorescence were recorded throughout the incubation.
For analysis of the effect of anti-cancer compounds on stationary phase- and regrowing bacteria, the cultures were incubated for 24 h at 37 °C with shaking at 200 rpm in Erlenmeyer flasks. […] The samples were incubated for 24 h at 37 °C in standing 1.5 ml tubes. Before and after the drug treatment, 25 μl aliquots were taken and diluted by mixing with 175 μl PBS. OD600 and mScarlet fluorescence were recorded using a microplate reader (BioTek Synergy H1).
After the treatment, stationary-phase bacteria were harvested by centrifugation at 5000 × g for 5 min at 20 °C, washed twice with PBS, and resuspended in 475 μl PBS.

[2] = system: non-growing S. aureus DSM2569; test: Dose-dependent killing analysis (CFU spot-plating) of stationary-phase S. aureus; format: cell-based, Staphylococcus aureus; settings: at 10 µM, 24 h treatment
Method in brief: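 Stationary-phase S. aureus DSM2569 was grown and treated for 24 h in 1:4 CA-MHB at pH 7.4. Treated samples were serially diluted 10-fold in PBS and spot-plated on LB agar, which was incubated overnight at 37 °C. Survivors were counted as CFU over three biological replicates.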

[3] = system: non-growing P. aeruginosa DSM1117; test: Dose-dependent killing analysis (CFU spot-plating) of stationary-phase P. aeruginosa; format: cell-based, Pseudomonas aeruginosa; settings: for killing, average Δlog10(CFU/ml): P. aeruginosa
Method in brief: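 Stationary-phase P. aeruginosa DSM1117 treated for 24 h in 1:4 CA-MHB, pH 7.4, across compound doses. Survivors counted after 10-fold PBS dilution, spot-plating on LB agar and overnight growth at 37 °C; three biological replicates.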

CO[C@@]12[C@H](COC(N)=O)C3=C(C(=O)C(C)=C(N)C3=O)N1C[C@@H]1N[C@@H]12 [Mitomycin C]
induction of the SOS response in growing UPEC cultures [1]: induced the SOS response
reduction of non-growing S. aureus [2]: below the limit of detection
killing, average Δlog10(CFU/ml) ([3]; drug concentration 0.1): 1.020 log10(CFU/ml)
killing, average Δlog10(CFU/ml) ([3]; drug concentration 0.5): 2.346 log10(CFU/ml)
killing, average Δlog10(CFU/ml) ([3]; drug concentration 2.5): 4.887 log10(CFU/ml)
killing, average Δlog10(CFU/ml) ([3]; drug concentration 10): 4.887 log10(CFU/ml)
killing of non-growing P. aeruginosa ([3]; at 2.5 µM, 24 h treatment): > 4 log10
